Measurements taken from US12685749B2, “Multi-functional cleaning and/or debridement composition” (CORTICALIS AS, priority 2021, dated 2026).
Where two headings read alike, the source gives them in different places.

Key:
[1] = From the text: Methylene blue (MB) is a heterocyclic aromatic chemical compound with molecular formula: C16H18N3SCl (SigmaAldrich, Oslo, Norway). It has many uses in a range of different fields, such as biology and chemistry. […] A degradation of MB therefore can be used as a model for the in vivo degradation of organic material, such as bacteria, or dead, damaged, and/or infected tissue. At room temperature, it appears as a solid, odourless, dark green powder, that yields a blue solution when dissolved in water. When degraded in solution, methylene blue becomes colourless.
When methylene blue is analysed by UV-vis spectrophotometry (Lambda 25, Perkin Elmer, USA), it absorbs light at […]. This machine was used to quantify the degradation of MB.
The aim was to measure if methylene blue could be degraded by H2O2(PERDROGEN® 30% H2O2 (v/v), Sigma Aldrich AS, Oslo, Norway) at 5% only, without ACP in a composite hydrogel formulation comprising poloxamers (Sigma Aldrich AS, Oslo, Norway) at a concentration of 5% w/v. Then, an increasing concentration of amorphous calcium phosphates ACP (by mixing two precursor components. Component A contained MB in a mixture of mono- and dibasic ammonium phosphate at pH 5.5.) was added to the solution until a maximum concentration of 8 g/L.
The measurements were taken every 3 minutes for one hour. The pH of the suspension containing MB was also registered. […]

[2] = pH of the suspension containing MB; assay type: physicochemical
[3] = tested on: Staphylococcus epidermidis biofilm; assay: Removal of biofilm from titanium disks, safranin staining; assay type: cell-based; details: two minutes exposure
From the text: Chemically pure (cp) titanium disks with a diameter of 6.2 mm and a height of 2 mm were used. […] After production, the disks were washed with NaOH at 40% v/v and HNO3 at 50% v/vin an ultrasonic bath to remove contaminants, then were washed with deionised water to reach a neutral pH and stored at room temperature in 70% v/v ethanol. Thereafter, the coins were placed in Eppendorf tube and steam autoclaved for sterilization.
Four chemical decontamination agents were selected for the in vitro testing: sterile saline H2O (VWR, Oslo, Norway), Chlorhexidine, 3% v/v H2O2(VWR, Oslo, Norway), a mixture of 3% v/v H2O2 and 2 g/L TiO2 (2 g nano-particles: P25 Aeroxide, Degussa Evonik, Evonik Industries AG, Essen, Germany).
15 sterile titanium disks per groups were inoculated. […] The amount of biofilm present on the surface of the titanium samples was assessed by using the safranin staining method: 10 min exposure to a 0.1% solution of safranin, then rinsed with distilled water, air dried, and exposed to a solution of 30% acetic acid to release the colored biomass from the titanium surfaces. The intensity of the staining was analyzed using a Synergy HT Multi-Detection Microplate Reader (Biotek, VT, USA) with a wavelength of 530 nm.

[4] = cited from earlier work

- MB degradation ([1]; adding 5% v/v H2O2 to the ACP suspension): increased the MB degradation
- pH of the suspension ([2]; ACP suspension with MB, with H2O2 at 15% v/v): 3.3
- pH of the suspension ([2]; H2O2 suspension with MB, without ACP): 3.7
Compound: OO [H2O2, Hydrogen peroxide]
- MB degradation ([1]; increasing concentration of H2O2 in the ACP suspension): increased the MB degradation in a linear way
- biofilm removal with higher concentration [3]: increased the biofilm removal
- effect on wound healing ([4]; 0.03% v/v solution, only if not applied repeatedly): may induce healing
- effect on wound healing ([4]; 0.5% v/v solution): impede healing
